Results: patent US5112856A, “Therapeutic treatment of intestinal inflammation by administration of 3,4-dihydro-2H-1-benzopyran derivatives” (Hoffmann-La Roche Inc., priority 1990, dated 1992)

Legend:
guinea pig colon = assay: Carrageenan-induced colitis in guinea pigs, in vivo (water transport in distal colon); parameters: species or system Male/female guinea pigs (Hartley); conditions: oral
Description: The guinea pig carrageenan-induced colitis biossay has been described by A. B. Onderdonk in Inflammatory Bowel Diseases, Martinus Nijhoff Publ., Boston, Mass., pages 126-134 (1982), and in Human Intestinal Microflora in Health and Disease (D. J. Hentger, ed.), Academic Press, New York, 1983, pages 447-479. The polysaccharide iotacarrageenan, derived from red seaweed, produces a colitis in guinea pigs that resembles ulcerative colitis in humans. Male/female guinea pigs (Hartley), weighing 400 to 650 g, were given a 3% solution of degraded carrageenan in their drinking water on a daily basis. After about 7 days, the animals began to develop diarrhea, ceased to gain weight and became lethargic. After the animals received carrageenan in this manner for 14 days, the diarrhea was quantified by measuring the water transport in the distal colon by single pass perfusion using 14C-polyethylene glycol 4000 (PEG 4000) as a marker. Control animals were given an aqueous drinking solution containing 3% mannitol in place of the carrageenan. Simultaneously, randomly selected animals from each of these two groups were treated orally with the test inhibitor compound, twice daily. […]

LTB4 = assay: Rat colon mucosa in vitro, short-circuit current: LTB4-induced electrolyte secretion; conditions: six animals
Description: (§1) The rat colon mucosa bioassay system is based on the measurement of changes in salt transport across the animal tissue due to absorption or secretion, using the standard short-circuit current technique described by Ussing, et al., Acta Physiol. Scand. 23: 110-127 (1951). Diarrhea is the most common symptom of gastrointestinal inflammation and is present in all types of inflammatory bowel disease. Pantera, et al., Ital. J. Gastroenterol. 13: 24-27 (1981); Sales, et al., Arch. Int. Med. 143: 294-299 (1983); Hodgson, Br. J. Clin. Pharmac. 14: 159-270 (1982). Diarrhea results from decreases in the salt absorption or increases in the salt secretion in the bowel and can be quantified in vitro by the above mentioned method of Ussing et al. In particular, a one-cm segment of colon is removed from animals weighing 200 to 250 g, exposed in vitro to leukotrienes or to bradykinin, which are inducers of salt secretion, and the resulting change in the net salt transport with and without the presence of 6-acetyl-7-[5-(4-acetyl-3 -hydroxy-2-propylphenoxy) pentyloxy]-3,4-dihydro-2H-1-benzopyran-2-carboxylic acid as an inhibitor is measured. Tissues were mounted in pairs in Ussing chambers and short-circuited with automatic voltage clamps (from the University of Iowa Bioengineering Department). A 15-minute period of equilibrium was allowed for the preparation to reach steady state. […]

LTE4 = assay: Rat colon mucosa in vitro, short-circuit current: LTE4-induced electrolyte secretion; conditions: six animals
Description: as §1

LTC4 = assay: Rat colon mucosa in vitro, short-circuit current: LTC4-induced electrolyte secretion; conditions: six animals
Description: as §1

LTD4 = assay: Rat colon mucosa in vitro, short-circuit current: LTD4-induced electrolyte secretion; conditions: six animals
Description: as §1

[1] = system: antibiotic-induced colitis; assay: Antibiotic (clindamycin)-induced colitis in hamsters, in vivo; parameters: species or system Male Syrian hamsters (LUG); conditions: for activity in clindamycin-induced colitis: oral
Method: Male Syrian hamsters (LUG), weighing 80 to 120 g, were each given a single dose of 175 mg/kg of clindamycin-phosphate or of clindamycin-hydrochlorideintraperitoneally, to induce colitis. Approximately seven hours after injection, the animals were given the test compound orally or intraperitoneally and the therapy was continued twice a day for a period of four more days. For oral administration, the […] was suspended in water or dissolved in dimethylsulfoxide and delivered to the animals by gavage using an oral intubating needle. The effect of the therapy was measured by use of the Hazard Ratio, which is the ratio of the mortality of the animals treated with the test inhibitor compound contained in a vehicle to the mortality of the animals treated with the vehicle containing none of the test inhibitor compound. The mortality was determined for the test inhibitor compound-treated groups and for the vehicle-treated groups, respectively, twice daily, and was evaluated by comparing the survival curves of each group. The Kaplan-Meier estimate of the survival curve was calculated for each group and the Mantel-Cox (logrank) test was used to compare the survival curve of each test inhibitor compound-treated (therapy) group to that of the corresponding vehicle control group. […]

[2] = system: myeloperoxidase of the rat colon; assay: Acetic acid-induced colitis in rats, in vivo (colonic myeloperoxidase); parameters: species or system Male rats (Sprague-Dawley); conditions: oral
Description: The rat acetic acid-induced colitis biossay has been described by J. E. Krawisz, et al. in Amer. J. Proc. Gastro. Col. Rec. Surg. 31: 11-18 (1980), and by P. Sharon and W. F. Stenson in Gastroenterology 88: 55-63 (1985) and 86: 453-460 (1984). Acetic acid-induced colitis is characterized by the movement of inflammatory cells into the colon, with the number of such cells in the mucosa being measured by the activity of myeloperoxidase, a marker enzyme for these cells. Positive desirable activity is indicated by a reduction in the high levels of myeloperoxidase caused by acetic acid. Male rats (Sprague-Dawley), weighing 150 to 300 g, were pretreated twice daily for two days with either the vehicle (water, or dimethylsulfoxide) or the test inhibitor compound suspended in water or dissolved in dimethylsulfoxide and orally administered. […] Twenty four hours after the acetic acid treatment, the animals were sacrificed, the colonic mucosa was surgically removed and homogenized in an aqueous buffer at pH 6 with a Tissumizer or similar device, and myeloperoxidase was measured in the homogenate using o-phenylenediamine as a chromagen, as described by A. Voller, D. E. Bidwell and A. Bartlett in The Enzyme Linked Immunosorbent Assay (ELISA), Zoological Soc., London, 1979, pages 29-30. […]

[3] = 10 mg/kg oral, in 0.15 ml water, >1.0 = prolongs survival vs. vehicle

`CCCc1c(OCCCCCOc2cc3c(cc2C(C)=O)CCC(C(=O)O)O3)ccc(C(C)=O)c1O` (racemic) [6-acetyl-7-[5-(4-acetyl-3-hydroxy-2-propylphenoxy)pentyloxy]-3,4-dihydro-2H-1-benzopyran-2-carboxylic acid] was tested. Which “water transport rate in the colon” value (guinea pig colon; 10 and 30 mg/kg, carrageenan-diseased animals (FIG. 5)) did it give?
The value was “water transport rates about equal to that of the control animals”.

What about the “% Inhibition Against Leukotrienes, LTB4” value (LTB4; 1 μM inhibitor) of the same compound?
The value was 44.4 ± 13.1%.

And the “% Inhibition Against Leukotrienes, LTB4” value (LTB4; 10 μM inhibitor)?
Its value is 69.6 ± 11.9%.

And the “% Inhibition Against Leukotrienes, LTE4” value (LTE4; 1 μM inhibitor)?
The value was 29.8 ± 15.0%.

What about the “% Inhibition Against Leukotrienes, LTE4” value (LTE4; 10 μM inhibitor) of the same compound?
Its value is 44.2 ± 9.8%.

What about the “% Inhibition Against Leukotrienes, LTC4” value (LTC4; 1 μM inhibitor) of the same compound?
Its value is 9.5 ± 19.2%.

What about the “% Inhibition Against Leukotrienes, LTC4” value (LTC4; 10 μM inhibitor) of the same compound?
Its value is 57.1 ± 19.7%.

What about the “% Inhibition Against Leukotrienes, LTD4” value (LTD4; 1 μM inhibitor) of the same compound?
The value was 30.8 ± 15.4%.

What about the “% Inhibition Against Leukotrienes, LTD4” value (LTD4; 10 μM inhibitor) of the same compound?
Its value is 62.4 ± 10.0%.

What about the “Hazard Ratio” value [1, 3] of the same compound?
The value was 3.80.

What about the “Hazard Ratio” value ([1]; 60 mg/kg intraperitoneal, in 0.075 ml PEG400, >1.0 = prolongs survival vs. vehicle) of the same compound?
The value was 4.77.

And the “Hazard Ratio” value ([1]; 60 mg/kg oral, in 0.15 ml water, >1.0 = prolongs survival vs. vehicle)?
The value was 12.0.

What about the “Hazard Ratio” value ([1]; 100 mg/kg oral, in 0.15 ml water, >1.0 = prolongs survival vs. vehicle) of the same compound?
Its value is 64.2.

And the “edema, hemorrhaging, congestion, necrosis, focal erosions, inflammatory cell infiltration of cecum (and colon)” value ([1]; 60 or 100 mg/kg)?
The value was “In most cases these effects were reduced or abolished”.

What about the diarrhea ([1]; clindamycin-treated hamsters) of the same compound?
The diarrhea was “reduced the diarrhea”.

What about the “histopathology of the cecum and colon” value ([1]; clindamycin-treated hamsters) of the same compound?
Its value is “substantially benefited the histopathology of the cecum and colon”.

And the “survival of clindamycin-treated animals” value ([1]; clindamycin-treated hamsters)?
Its value is “prolonging the survival”.

And the “Hazard Ratio” value ([1]; ip, 10 mg/kg)?
Its value is 2.87.

What about the “activity in clindamycin-induced colitis” value ([1]; doses ranging from 10 to 100 mg/kg) of the same compound?
Its value is “active”.

And the “activity in reducing myeloperoxidase of the rat colon” value ([2]; 30 and 90 mg/kg (FIG. 3))?
The value was “active”.

How did the “Hazard Ratio” value [1, 3] turn out when `CCCc1c(OCC(O)COc2ccc3c(=O)cc(C(=O)O)oc3c2CCC)ccc(C(C)=O)c1O` (stereo not drawn) [Comparison 1, 7-[3-(4-acetyl-3-hydroxy-2-propylphenoxy)-2-hydroxypropoxy]-4-oxo-8-propyl-4H-1-benzopyran-2-carboxylic acid, reference compound] was run?
The value was 1.42.

What about the “Hazard Ratio” value ([1]; ip, 10 mg/kg) of the same compound?
The value was 2.02.

And the “activity in clindamycin-induced colitis” value ([1]; 10 mg/kg)?
Its value is “inactive”.

Which results are given for `CCCc1c(OCCCOc2ccc3c(=O)cc(CCC(=O)O)oc3c2CCC)ccc(C(C)=O)c1O` [Comparison 2, 7-[3-(4-acetyl-3-hydroxy-2-propylphenoxy)propoxy]-4-oxo-8-propyl-4H-1-benzopyran-2-propanoic acid, reference compound]?
Hazard Ratio ([1]; 13 mg/kg oral, in 0.15 ml water, >1.0 = prolongs survival vs. vehicle): 1.68; activity in clindamycin-induced colitis ([1]; 10 mg/kg): inactive

With `O=C1CCN(c2ccccc2)N1` [phenidone, reference compound] as the compound, how does the “activity in reducing myeloperoxidase of the rat colon” value ([2]; 100 and 200 mg/kg (FIG. 2)) read?
Its value is “active”.

Which “water transport in the colon” value (guinea pig colon; 100 mg/kg, carrageenan-diseased animals (FIG. 4)) does the source give for `O=C(O)c1cc(/N=N/c2ccc(S(=O)(=O)Nc3ccccn3)cc2)ccc1O` [sulfasalazine, reference compound] here?
Its value is “restored the water transport in the colon of the diseased animals from a net secretory level to a level about that of the control animals”.
